Experiment [1] deals with M. tuberculosis H37Rv. In words: MIC, microbroth dilution. The class given is cell-based. Conditions: Mycobacterium tuberculosis.
Experiment [2] has as its system M. tuberculosis ATCC 35822. Format: cell-based, Mycobacterium tuberculosis.
In experiment [3] the test system is M. tuberculosis ATCC 35837. The experiment is described as follows: microbe, parasite or virus in culture. Format: cell-based. The following applies: Mycobacterium tuberculosis, ATCC35837.
Experiment [4] deals with M. tuberculosis ATCC 35820. Format: cell-based, Mycobacterium tuberculosis.
Experiment [5] concerns M. tuberculosis H37Rv-HL-15. The class given is cell-based, Mycobacterium tuberculosis.
The subject of experiment [6] is M. tuberculosis H37Rv-HL-14. The class given is cell-based, Mycobacterium tuberculosis.
For experiment [7], the system named is M. tuberculosis ATCC 35838. Format: cell-based, Mycobacterium tuberculosis.

Structures are written as SMILES. In brackets after ≈: the same amount, converted by molar mass. Some results are limits rather than exact numbers.

The results in this text go back to article PMC3972818 (Nature medicine, 2014).

In the case of `[H]/N=C(/N)N[C@H]1[C@H](O)[C@@H](O)[C@H](O[C@@H]2O[C@@H](C)[C@](O)(C=O)[C@H]2O[C@@H]2O[C@@H](CO)[C@H](O)[C@@H](O)[C@@H]2NC)[C@@H](N/C(N)=N\[H])[C@@H]1O` [Streptomycin, streptomycin], the MIC in experiment [1] is 1.6 mg/L (≈ 2.75 µM); in experiment [2] it was 1.6 mg/L (≈ 2.75 µM); in experiment [3], 1.6 mg/L (≈ 2.75 µM); in experiment [4], over 200 mg/L; in experiment [5], 1.6 mg/L (≈ 2.75 µM); in experiment [6], 1.6 mg/L (≈ 2.75 µM). Besides, the MIC in experiment [7] was 1.6 mg/L (≈ 2.75 µM).

In turn, `CC[C@@H](CO)NCCN[C@@H](CC)CO` [Ethambutol] gave an MIC in experiment [3] of over 25 mg/L.

Take `CN[C@@H]1[C@H](O)[C@H](NC)[C@H]2O[C@@]3(O)C(=O)C[C@@H](C)O[C@H]3O[C@@H]2[C@H]1O` [Spectinomycin, spectinomycin]: the MIC in experiment [1] is 100 mg/L (≈ 301 µM); in experiment [2], 100 mg/L (≈ 301 µM); in experiment [3] it was 100 mg/L (≈ 301 µM); in experiment [4], 200 mg/L (≈ 602 µM); in experiment [5], over 200 mg/L; in experiment [6], over 200 mg/L. This compound came in with an MIC in experiment [7] of 100 mg/L (≈ 301 µM).
